Results reported in ChEMBL document CHEMBL5042542, “Discovery of Non-Nucleotide Small-Molecule STING Agonists via Chemotype Hybridization” (J Med Chem, 2022).

Assay: in vitro
Settings: rat, liver microsomes

| SMILES | remaining at 10 min, 0.5 µM |
| --- | --- |
| CCn1nc(C)cc1C(=O)Nc1nc2cc(C(N)=O)cc(OC)c2n1C/C=C/Cn1c(NC(=O)c2cc(C)nn2CC)nc2cc(C(N)=O)cc(OCCCN3CCOCC3)c21 | 81% |
| O=C(O)c1ccc2cc(CNC(=O)c3cnn4cccnc34)oc2c1 | 100% |
| O=C(O)c1cccc2cc(Cn3ccc4ccncc4c3=O)oc12 | 100% |
| O=C(NCc1cc2cc(Cl)c3oc(=O)[nH]c(=O)c3c2o1)c1cnn2cccnc12 | 69% |
| O=C(O)c1c(O)c(Cl)cc2cc(CNC(=O)c3cnn4cccnc34)oc12 | 88% |
| O=C(O)c1ccc2oc(CNC(=O)c3cnn4cccnc34)cc2c1 | 100% |
| O=C(O)c1c(F)ccc2cc(CNC(=O)c3cnn4cccnc34)oc12 | 91% |
| O=C(O)c1cc(Cl)cc2cc(CNC(=O)c3cnn4cccnc34)oc12 | 100% |
| O=C(NCc1cc2cc(Cl)cc(-c3nn[nH]n3)c2o1)c1cnn2cccnc12 | 89% |
| O=C(O)c1cccc2c(Cl)c(CNC(=O)c3cnn4cccnc34)oc12 | 91% |
| COC(=O)c1cccc2cc(CN3Cc4ccncc4C3=O)oc12 | 7% |
| O=C(O)c1cccc2cc(CNC(=O)c3cnn4cccnc34)oc12 | 96% |
| O=C(NCc1cc2cc(Cl)cc(C(=O)O)c2o1)c1cncc2cccnc12 | 64% |
| Cn1c(CNC(=O)c2cnn3cccnc23)nc2c(C(=O)O)cccc21 | 89% |
| C[C@H](NC(=O)c1cnn2cccnc12)c1cc2cc(Cl)cc(C(=O)O)c2o1 | 94% |
| Cc1ccc2c(=O)c3cccc(CC(=O)O)c3oc2c1C [VADIMEZAN] | 100% |

Assay: in vitro
Settings: human, liver microsomes

| SMILES | remaining at 10 min, 0.5 µM |
| --- | --- |
| CCn1nc(C)cc1C(=O)Nc1nc2cc(C(N)=O)cc(OC)c2n1C/C=C/Cn1c(NC(=O)c2cc(C)nn2CC)nc2cc(C(N)=O)cc(OCCCN3CCOCC3)c21 | 22% |
| O=C(O)c1ccc2cc(CNC(=O)c3cnn4cccnc34)oc2c1 | 100% |
| O=C(O)c1cccc2cc(Cn3ccc4ccncc4c3=O)oc12 | 98% |
| O=C(NCc1cc2cc(Cl)c3oc(=O)[nH]c(=O)c3c2o1)c1cnn2cccnc12 | 54% |
| O=C(O)c1c(O)c(Cl)cc2cc(CNC(=O)c3cnn4cccnc34)oc12 | 98% |
| O=C(O)c1ccc2oc(CNC(=O)c3cnn4cccnc34)cc2c1 | 100% |
| O=C(O)c1c(F)ccc2cc(CNC(=O)c3cnn4cccnc34)oc12 | 98% |
| O=C(O)c1cc(Cl)cc2cc(CNC(=O)c3cnn4cccnc34)oc12 | 100% |
| O=C(NCc1cc2cc(Cl)cc(-c3nn[nH]n3)c2o1)c1cnn2cccnc12 | 96% |
| O=C(O)c1cccc2c(Cl)c(CNC(=O)c3cnn4cccnc34)oc12 | 99% |
| COC(=O)c1cccc2cc(CN3Cc4ccncc4C3=O)oc12 | 0% |
| O=C(O)c1cccc2cc(CNC(=O)c3cnn4cccnc34)oc12 | 94% |
| O=C(NCc1cc2cc(Cl)cc(C(=O)O)c2o1)c1cncc2cccnc12 | 92% |
| Cn1c(CNC(=O)c2cnn3cccnc23)nc2c(C(=O)O)cccc21 | 95% |
| C[C@H](NC(=O)c1cnn2cccnc12)c1cc2cc(Cl)cc(C(=O)O)c2o1 | 100% |
| Cc1ccc2c(=O)c3cccc(CC(=O)O)c3oc2c1C [VADIMEZAN] | 100% |

Assay: in vitro
Settings: mouse, liver microsomes

| SMILES | remaining at 10 min, 0.5 µM |
| --- | --- |
| CCn1nc(C)cc1C(=O)Nc1nc2cc(C(N)=O)cc(OC)c2n1C/C=C/Cn1c(NC(=O)c2cc(C)nn2CC)nc2cc(C(N)=O)cc(OCCCN3CCOCC3)c21 | > 100% |
| O=C(O)c1ccc2cc(CNC(=O)c3cnn4cccnc34)oc2c1 | 100% |
| O=C(O)c1cccc2cc(Cn3ccc4ccncc4c3=O)oc12 | 96% |
| O=C(NCc1cc2cc(Cl)c3oc(=O)[nH]c(=O)c3c2o1)c1cnn2cccnc12 | 57% |
| O=C(O)c1c(O)c(Cl)cc2cc(CNC(=O)c3cnn4cccnc34)oc12 | 93% |
| O=C(O)c1ccc2oc(CNC(=O)c3cnn4cccnc34)cc2c1 | 88% |
| O=C(O)c1c(F)ccc2cc(CNC(=O)c3cnn4cccnc34)oc12 | 92% |
| O=C(O)c1cc(Cl)cc2cc(CNC(=O)c3cnn4cccnc34)oc12 | 100% |
| O=C(NCc1cc2cc(Cl)cc(-c3nn[nH]n3)c2o1)c1cnn2cccnc12 | 80% |
| O=C(O)c1cccc2c(Cl)c(CNC(=O)c3cnn4cccnc34)oc12 | 85% |
| COC(=O)c1cccc2cc(CN3Cc4ccncc4C3=O)oc12 | 11% |
| O=C(O)c1cccc2cc(CNC(=O)c3cnn4cccnc34)oc12 | 97% |
| O=C(NCc1cc2cc(Cl)cc(C(=O)O)c2o1)c1cncc2cccnc12 | 65% |
| Cn1c(CNC(=O)c2cnn3cccnc23)nc2c(C(=O)O)cccc21 | 85% |
| C[C@H](NC(=O)c1cnn2cccnc12)c1cc2cc(Cl)cc(C(=O)O)c2o1 | 100% |
| Cc1ccc2c(=O)c3cccc(CC(=O)O)c3oc2c1C [VADIMEZAN] | 89% |
